pIC50: −log10 of the molar value. Bridge positions count the residues as written; N and C are the ends. Peptide text beside a SMILES is read from it.
Experiments:
integrin αvβ6 [1] = target: T1, integrin αvβ6 (Homo sapiens, UniProt P06756+P18564); test: ELISA competition assay, integrin αvβ6 binding to LAP
integrin αvβ8 = integrin αvβ8 (Homo sapiens, UniProt P06756+P26012); test: ELISA competition assay, integrin αvβ8 binding to LAP
integrin αvβ3 = integrin αvβ3 (Homo sapiens, UniProt P05106+P06756); test: ELISA competition assay, integrin αvβ3; assay type: binding
[2] = test system: αvβ6/8 vs other RGD-integrins; test: Selectivity and potency gain for αvβ6/8, worked out from integrin IC50 values; assay type: binding, human; settings: for improvement in potency (IC50) for αvβ6/8 relative to parent lassotide: 24 and 30 vs 14, 35 vs 28, 36 vs 30, 47 vs 36
Mouse αvβ6 = target: T2, Mouse αvβ6 (Mus musculus, UniProt P43406+Q9Z0T9); test: ELISA competition assay, mouse integrin αvβ6; assay type: binding
T2 sequence (P43406 31-988 limits assumed): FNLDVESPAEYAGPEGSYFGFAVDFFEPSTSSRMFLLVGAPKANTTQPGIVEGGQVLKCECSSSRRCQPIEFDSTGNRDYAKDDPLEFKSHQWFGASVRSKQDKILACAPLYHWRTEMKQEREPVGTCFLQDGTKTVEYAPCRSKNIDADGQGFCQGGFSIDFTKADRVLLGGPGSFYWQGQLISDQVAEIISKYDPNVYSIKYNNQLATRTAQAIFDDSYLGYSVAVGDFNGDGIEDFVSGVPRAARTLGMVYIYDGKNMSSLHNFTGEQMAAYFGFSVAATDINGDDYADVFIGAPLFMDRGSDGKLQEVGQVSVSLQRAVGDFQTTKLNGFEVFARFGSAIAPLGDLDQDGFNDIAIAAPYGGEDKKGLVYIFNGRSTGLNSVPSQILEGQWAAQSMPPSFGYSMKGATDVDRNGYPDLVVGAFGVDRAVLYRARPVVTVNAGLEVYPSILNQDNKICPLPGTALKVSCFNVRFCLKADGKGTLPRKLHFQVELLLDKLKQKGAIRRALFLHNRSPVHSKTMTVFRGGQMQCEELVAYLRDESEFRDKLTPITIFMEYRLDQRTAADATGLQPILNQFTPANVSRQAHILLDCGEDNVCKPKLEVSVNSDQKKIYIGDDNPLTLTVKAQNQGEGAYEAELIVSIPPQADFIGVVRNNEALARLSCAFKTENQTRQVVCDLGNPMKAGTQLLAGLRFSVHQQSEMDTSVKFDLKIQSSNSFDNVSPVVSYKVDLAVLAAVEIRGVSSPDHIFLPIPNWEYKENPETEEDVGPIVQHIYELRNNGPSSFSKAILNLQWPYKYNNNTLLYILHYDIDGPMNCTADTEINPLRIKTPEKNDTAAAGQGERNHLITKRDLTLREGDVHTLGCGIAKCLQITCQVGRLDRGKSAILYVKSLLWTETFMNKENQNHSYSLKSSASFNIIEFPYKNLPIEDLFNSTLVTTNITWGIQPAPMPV
T2 sequence (Q9Z0T9 22-707 limits assumed): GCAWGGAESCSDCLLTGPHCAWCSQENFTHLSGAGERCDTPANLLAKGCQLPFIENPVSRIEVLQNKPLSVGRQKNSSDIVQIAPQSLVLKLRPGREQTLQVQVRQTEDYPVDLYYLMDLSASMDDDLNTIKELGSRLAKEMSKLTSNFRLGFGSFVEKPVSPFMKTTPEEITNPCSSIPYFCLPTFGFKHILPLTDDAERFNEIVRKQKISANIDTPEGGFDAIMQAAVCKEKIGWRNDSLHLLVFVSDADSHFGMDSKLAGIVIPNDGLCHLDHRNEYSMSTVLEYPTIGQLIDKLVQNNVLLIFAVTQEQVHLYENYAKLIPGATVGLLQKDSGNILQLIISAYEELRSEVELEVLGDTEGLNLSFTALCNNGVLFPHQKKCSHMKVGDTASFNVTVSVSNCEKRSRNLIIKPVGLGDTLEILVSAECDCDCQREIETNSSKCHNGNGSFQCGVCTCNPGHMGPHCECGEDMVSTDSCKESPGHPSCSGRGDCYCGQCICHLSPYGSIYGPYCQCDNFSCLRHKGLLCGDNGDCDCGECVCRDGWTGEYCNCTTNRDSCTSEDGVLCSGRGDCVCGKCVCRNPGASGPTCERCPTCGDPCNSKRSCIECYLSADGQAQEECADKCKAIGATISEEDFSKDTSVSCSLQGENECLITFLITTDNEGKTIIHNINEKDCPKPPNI

integrin αvβ6 [3] = target: T1, integrin αvβ6; test: AlphaLISA competition assay vs LAP, biotinylated αvβ6; assay type: binding

## CC[C@H](C)[C@H](NC(=O)[C@H](CC(C)C)NC(=O)[C@H](CC(=O)O)NC(=O)CNC(=O)[C@H](CCCNC(=N)N)NC(=O)[C@@H](NC(=O)[C@H](Cc1ccccc1)NC(=O)[C@H](Cc1ccc(O)cc1)NC(=O)[C@@H]1CCC(=O)NCC(=O)NCC(=O)N[C@@H](C)C(=O)NCC(=O)N[C@@H](Cc2c[nH]cn2)C(=O)N[C@@H](C(C)C)C(=O)N2CCC[C@H]2C(=O)N1)C(C)C)C(=O)N[C@@H](CO)C(=O)N[C@@H](Cc1ccccc1)C(=O)N[C@@H](Cc1ccc(O)cc1)C(=O)NCC(=O)O [lassotide 14] (GGAGHVPEYFVRGDLISFYG-OH; lactam N-8; C-terminus assumed)
Integrin αvβ6 [1]
  pIC50: 7.08
Integrin αvβ8
  pIC50: 6.94
Integrin αvβ3
  pIC50: 6.62
[2]; from IC50 values
  selectivity favoring αvβ6/8 over αvβ3: 2-3 fold

## CC(C)C[C@H](NC(=O)[C@H](CC(=O)O)NC(=O)CNC(=O)[C@H](CCCNC(=N)N)NC(=O)[C@@H](NC(=O)[C@H](Cc1ccccc1)NC(=O)[C@H](Cc1ccc(O)cc1)NC(=O)[C@@H]1CCC(=O)NCC(=O)NCC(=O)N[C@@H](C)C(=O)NCC(=O)N[C@@H](Cc2c[nH]cn2)C(=O)N[C@@H](C(C)C)C(=O)N2CCC[C@H]2C(=O)N1)C(C)C)C(=O)N[C@@H](CCC(N)=O)C(=O)N[C@@H](CO)C(=O)N[C@@H](Cc1ccccc1)C(=O)N[C@@H](Cc1ccc(O)cc1)C(=O)NCC(=O)O [lassotide 24] (GGAGHVPEYFVRGDLQSFYG-OH; lactam N-8; C-terminus assumed)
Integrin αvβ6 [1]
  pIC50: 8.22
Mouse αvβ6
  pIC50: 8.15
Integrin αvβ6 [3]
  pIC50: 7.89
[2]
  improvement in potency (IC50) for αvβ6/8 relative to parent lassotide: up to 7 fold

## CC[C@H](C)[C@H](NC(=O)[C@H](CC(C)C)NC(=O)[C@H](CC(=O)O)NC(=O)CNC(=O)[C@H](CCCNC(=N)N)NC(=O)[C@@H](NC(=O)[C@H](Cc1ccccc1)NC(=O)[C@H](Cc1ccc(O)cc1)NC(=O)[C@@H]1CCC(=O)NCC(=O)NCC(=O)N[C@@H](CCCNC(=N)N)C(=O)NCC(=O)N[C@@H](Cc2c[nH]cn2)C(=O)N[C@@H](C(C)C)C(=O)N2CCC[C@H]2C(=O)N1)C(C)C)C(=O)N[C@@H](CO)C(=O)N[C@@H](Cc1ccccc1)C(=O)N[C@@H](Cc1ccc(O)cc1)C(=O)NCC(=O)O [lassotide 30] (GGRGHVPEYFVRGDLISFYG-OH; lactam N-8; C-terminus assumed)
Integrin αvβ6 [1]; Human αvß6 IC50, ELISA run in triplicate, mean, Table S1
  pIC50: 7.77
Integrin αvβ6 [1]; αvβ6 IC50, ELISA competition vs LAP, mean, n ≥ 3
  pIC50: 7.52
Integrin αvβ8
  pIC50: 7.57
Mouse αvβ6
  pIC50: 7.62
[2]
  improvement in potency (IC50) for αvβ6/8 relative to parent lassotide: 3-4 fold

— doi:10.1101/2025.01.28.635346v1 (bioRxiv, 2025)
